Test results: patent US11052092B2, “N-{[2-(piperidin-1-yl)phenyl](phenyl)methyl}-2-(3-oxo-3,4-dihydro-2H-1,4-benzoxazin-7-yl)acetamide derivatives and related compounds as ROR-gamma modulators for treating autoimmune diseases” (Genfit, priority 2017, dated 2021)

biological target: T1, human RORγt (Homo sapiens, UniProt P51449); assay: RORE Luciferase/RORγt transactivation assay; type: cell-based; conditions: COS-7 cells transfected with human IL-17 promoter luciferase reporter and RORγt plasmid; 20 h with compound; read-out: IC50, RORγt activity inhibition
T1 construct: the full-length cDNA of human RORγt; expressed in transfected cells; host or cells: COS-7 (monkey kidney)
T1 sequence (P51449 1-497 isoform P51449-2): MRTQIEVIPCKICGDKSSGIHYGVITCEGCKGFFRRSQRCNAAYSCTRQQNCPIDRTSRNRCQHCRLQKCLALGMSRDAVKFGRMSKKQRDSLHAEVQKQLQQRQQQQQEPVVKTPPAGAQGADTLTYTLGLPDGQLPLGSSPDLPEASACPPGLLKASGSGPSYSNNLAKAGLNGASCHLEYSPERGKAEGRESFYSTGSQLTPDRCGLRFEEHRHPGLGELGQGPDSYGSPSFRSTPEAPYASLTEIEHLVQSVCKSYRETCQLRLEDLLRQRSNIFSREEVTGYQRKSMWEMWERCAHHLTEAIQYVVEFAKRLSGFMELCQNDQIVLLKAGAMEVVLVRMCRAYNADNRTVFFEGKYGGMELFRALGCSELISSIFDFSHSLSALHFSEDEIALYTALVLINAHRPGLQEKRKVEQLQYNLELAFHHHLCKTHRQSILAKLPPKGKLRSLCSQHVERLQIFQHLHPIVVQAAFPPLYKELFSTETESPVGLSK
Method: It is well known that RORγ binds to a conserved non-coding sequence (CNS) enhancer element in the IL-17 promoter.
Culture medium was changed every 2 days.
The 4.3 Kb human IL-17 promoter containing the RORγ-specific CNS enhancer element was PCR amplified from human genomic DNA and cloned into a pGL3-TKLuc2Cp reporter plasmid.
The luciferase reporter plasmid and the RORγt overexpression plasmid were transfected into COS-7 cell line using 4 μLJetPEI™/μg of DNA. Briefly, 150 ng of DNA (ration ½ between RORE-Tk Luc2Cp and cDNA RORγt or the empty vector for the negative control) was served to transfect adherent COS-7 cells in a […] culture flask, in complete medium (see cos-7 cell line culture).
Cells were then detached (using trypsin) and washed by centrifugation at 300 g for 10 minutes. Cell pellet was resuspended in serum free/phenol red free DMEM and seeded in 384 well plates at a density of 10000 cells/well and then incubated for 4 h at 37° C.
Compounds were dissolved in 100% DMSO to obtain 10 mM stock solutions. For each compound, test concentrations were diluted in serum free/phenol red free DMEM using the Genesis Freedom 200™ (TECAN) and added to the cells to obtain a 0.3% DMSO final concentration (in a final volume of 40 μL per well).
The luciferase activity was then measured with 40 μL/well steady-Glo Luciferase assay system (Promega, Madison, Wis.) and after incubation at room temperature for 30 minutes. The luminescence was estimated using the Ultra384 reader (TECAN). Data were collected and analyzed using GraphPad Prism software (GraphPad Software V5.02, San Diego Calif. USA). IC50 in μM and Emax in % were reported for each compound.

Row | IC50 [nM] | SMILES
1 | 10 to 100 | Cc1ccc(C(NC(=O)C2(c3ccc4c(c3)CS(=O)(=O)N4CC3CCOCC3)CC2)c2ccc(C)o2)c(N2CCCCC2)c1 (stereo not drawn) [Cpd. 162, N-{[4-methyl-2-(piperidin-1-yl)phenyl](5-methylfuran-2-yl)methyl}-1-[1-(oxan-4-ylmethyl)-2,2-dioxo-1,3-dihydro-2,1-benzothiazol-5-yl]cyclopropane-1-carboxamide]
2 | 10 to 100 | Cc1ccc(C(NC(=O)C2(c3ccc4c(c3)CS(=O)(=O)N4C)CC2)c2ccc(C)o2)c(C)c1 (stereo not drawn) [Cpd. 70, N-[(2,4-dimethylphenyl)(5-methylfuran-2-yl)methyl]-1-(1-methyl-2,2-dioxo-1,3-dihydro-2,1-benzothiazol-5-yl)cyclopropane-1-carboxamide]
3 | 100 to 1000 | Cc1ccc(C(NC(=O)C2(c3ccc4c(c3)OCO4)CC2)c2ccc(C)o2)c(N2CCCCC2)c1 (stereo not drawn) [Cpd. 164, 1-(2H-1,3-benzodioxol-5-yl)-N-{[4-methyl-2-(piperidin-1-yl)phenyl](5-methylfuran-2-yl)methyl}cyclopropane-1-carboxamide]
4 | < 10 | Cc1ccc(C(NC(=O)C2(c3ccc4c(c3)CS(=O)(=O)N4CC3CCOCC3)CC2)c2ccc(C)o2)c(C)c1 (stereo not drawn) [Cpd. 157, N-[(2,4-dimethylphenyl)(5-methylfuran-2-yl)methyl]-1-[1-(oxan-4-ylmethyl)-2,2-dioxo-1,3-dihydro-2,1-benzothiazol-5-yl]cyclopropane-1-carboxamide]
5 | < 10 | Cc1ccc(C(NC(=O)Cc2ccc3c(c2)CCN3C(=O)C2CC2)c2ccc(C)o2)c(N2CCCCC2)c1 (stereo not drawn) [Cpd. 123, 2-(1-cyclopropanecarbonyl-2,3-dihydro-1H-indol-5-yl)-N-{[4-methyl-2-(piperidin-1-yl)phenyl](5-methylfuran-2-yl)methyl}acetamide]
6 | 10 to 100 | Cc1ccc(C(NC(=O)C2(c3ccc4c(c3)OCC(=O)N4)CC2)c2ccc(Cl)o2)c(N2CCCCC2)c1 (stereo not drawn) [Cpd. 145, N-[(5-chlorofuran-2-yl)[4-methyl-2-(piperidin-1-yl)phenyl]methyl]-1-(3-oxo-3,4-dihydro-2H-1,4-benzoxazin-7-yl)cyclopropane-1-carboxamide]
7 | 10 to 100 | Cc1ccc(C(NC(=O)C2(c3ccc4c(c3)CS(=O)(=O)N4CC3CCOCC3)CC2)c2ccc(C)o2)c(Br)c1 (stereo not drawn) [Cpd. 163, N-[(2-bromo-4-methylphenyl)(5-methylfuran-2-yl)methyl]-1-[1-(oxan-4-ylmethyl)-2,2-dioxo-1,3-dihydro-2,1-benzothiazol-5-yl]cyclopropane-1-carboxamide]
8 | 10 to 100 | Cc1ccc(C(NC(=O)C2(c3ccc4c(c3)CCN4C(=O)C3CC3)CC2)c2ccc(C)o2)c(C)c1 (stereo not drawn) [Cpd. 95, 1-(1-cyclopropanecarbonyl-2,3-dihydro-1H-indol-5-yl)-N-[(2,4-dimethylphenyl)(5-methylfuran-2-yl)methyl]cyclopropane-1-carboxamide]

Further lines, the compound ahead of its results:

Row | SMILES | IC50 [nM]
9 | Cc1ccc(C(NC(=O)C2(c3ccc4c(c3)OC(C)(C)OC4)CC2)c2ccc(C)o2)c(C)c1 (stereo not drawn) [Cpd. 168, 1-(2,2-dimethyl-2,4-dihydro-1,3-benzodioxin-7-yl)-N-[(2,4-dimethylphenyl)(5-methylfuran-2-yl)methyl]cyclopropane-1-carboxamide] | 100 to 1000
10 | Cc1ccc(C(NC(=O)Cc2ccc3c(c2)OCS(=O)(=O)N3)c2ccc(C)o2)c(Br)c1 (stereo not drawn) [Cpd. 150, N-[(2-bromo-4-methylphenyl)(5-methylfuran-2-yl)methyl]-2-(2,2-dioxo-1,3-dihydro-4,2,1-benzoxathiazin-6-yl)acetamide] | 100 to 1000
11 | O=C1COc2ccc(CC(=O)NC(c3ccccc3)c3ccccc3N3CCCCC3)cc2N1 (stereo not drawn) [Cpd. 13, 2-(3-oxo-3,4-dihydro-2H-1,4-benzoxazin-6-yl)-N-{phenyl[2-(piperidin-1-yl)phenyl]methyl}acetamide] | 1000 to 10000
12 | Cc1ccc(C(NC(=O)C2(c3ccc4c(c3)CN(S(C)(=O)=O)C4)CC2)c2ccc(Cl)o2)c(C)c1 (stereo not drawn) [Cpd. 56, N-[(5-chlorofuran-2-yl)(2,4-dimethylphenyl)methyl]-1-(2-methanesulfonyl-2,3-dihydro-1H-isoindol-5-yl)cyclopropane-1-carboxamide] | 10 to 100
13 | Cc1ccc(C(NC(=O)C2(c3ccc4c(c3)CS(=O)(=O)N4C)CC2)c2ccc(C)o2)c(N(C)C)c1 (stereo not drawn) [Cpd. 133, N-{[2-(dimethylamino)-4-methylphenyl](5-methylfuran-2-yl)methyl}-1-(1-methyl-2,2-dioxo-1,3-dihydro-2,1-benzothiazol-5-yl)cyclopropane-1-carboxamide] | 10 to 100
14 | Cc1ccc(C(NC(=O)Cc2ccc3c(ccn3CCC(=O)OC(C)(C)C)c2)c2ccc(C)o2)c(N2CCCCC2)c1 (stereo not drawn) [Cpd. 96, tert-butyl 3-{5-[({[4-methyl-2-(piperidin-1-yl)phenyl](5-methylfuran-2-yl)methyl}carbamoyl)methyl]-1H-indol-1-yl}propanoate] | 100 to 1000
15 | Cc1ccc(C(NC(=O)C2(c3ccc4[nH]cc(C(C)(C)CO)c4c3)CC2)c2ccc(C)o2)c(C)c1 (stereo not drawn) [Cpd. 170, N-[(2,4-dimethylphenyl)(5-methylfuran-2-yl)methyl]-1-[3-(1-hydroxy-2-methylpropan-2-yl)-1H-indol-5-yl]cyclopropane-1-carboxamide] | 10 to 100
16 | Cc1ccc(C(NC(=O)C2(c3ccc4c(c3)OCC(=O)N4)CC2)c2ccc(C)o2)c(N(C)C)c1 (stereo not drawn) [Cpd. 156, N-{[2-(dimethylamino)-4-methylphenyl](5-methylfuran-2-yl)methyl}-1-(3-oxo-3,4-dihydro-2H-1,4-benzoxazin-7-yl)cyclopropane-1-carboxamide] | 10 to 100
17 | Cc1ccc(C(NC(=O)C2(c3ccc4c(c3)CCC4=NO)CC2)c2ccc(C)o2)c(C)c1 (stereo not drawn) [Cpd. 165, N-[(2,4-dimethylphenyl)(5-methylfuran-2-yl)methyl]-1-[1-(hydroxyimino)-2,3-dihydro-1H-inden-5-yl]cyclopropane-1-carboxamide] | 10 to 100
18 | Cc1ccc(C(NC(=O)C2(c3ccc4c(ccn4CCC(=O)O)c3)CC2)c2ccc(C)o2)c(C)c1 (stereo not drawn) [Cpd. 152, 3-[5-(1-{[(2,4-dimethylphenyl)(5-methylfuran-2-yl)methyl]carbamoyl}cyclopropyl)-1H-indol-1-yl]propanoic acid] | 10 to 100
19 | Cc1ccc(C(NC(=O)C2(c3ccc4c(c3)OCS(=O)(=O)N4)CC2)c2ccc(Cl)o2)c(C)c1 (stereo not drawn) [Cpd. 149, N-[(5-chlorofuran-2-yl)(2,4-dimethylphenyl)methyl]-1-(2,2-dioxo-1,3-dihydro-4,2,1-benzoxathiazin-6-yl)cyclopropane-1-carboxamide] | 10 to 100
20 | Cc1ccc(C(NC(=O)C2(c3ccc4c(c3)OCS(=O)(=O)N4)CC2)c2ccc(C)o2)c(N(C)C)c1 (stereo not drawn) [Cpd. 148, N-{[2-(dimethylamino)-4-methylphenyl](5-methylfuran-2-yl)methyl}-1-(2,2-dioxo-1,3-dihydro-4,2,1-benzoxathiazin-6-yl)cyclopropane-1-carboxamide] | 100 to 1000
21 | COc1ccc(C(NC(=O)C2(c3ccc4c(c3)OCS(=O)(=O)N4)CC2)c2ccc(C)o2)c(Br)c1 (stereo not drawn) [Cpd. 147, N-[(2-bromo-4-methoxyphenyl)(5-methylfuran-2-yl)methyl]-1-(2,2-dioxo-1,3-dihydro-4,2,1-benzoxathiazin-6-yl)cyclopropane-1-carboxamide] | 10 to 100
22 | Cc1ccc(C(NC(=O)Cc2ccc3c(c2)CC(=O)N3)c2ccc(C)o2)c(C)c1 (stereo not drawn) [Cpd. 29, N-[(2,4-dimethylphenyl)(5-methylfuran-2-yl)methyl]-2-(2-oxo-2,3-dihydro-1H-indol-5-yl)acetamide] | 1000 to 10000
23 | Cc1ccc(C(NC(=O)C2(c3ccc4c(c3)COC(C)(C)O4)CC2)c2ccc(C)o2)c(C)c1 (stereo not drawn) [Cpd. 169, 1-(2,2-dimethyl-2,4-dihydro-1,3-benzodioxin-6-yl)-N-[(2,4-dimethylphenyl)(5-methylfuran-2-yl)methyl]cyclopropane-1-carboxamide] | 100 to 1000
24 | Cc1ccc(C(NC(=O)C2(c3ccc4c(c3)C(F)(F)C(=O)N4)CC2)c2ccc(C)o2)c(C)c1 (stereo not drawn) [Cpd. 159, 1-(3,3-difluoro-2-oxo-2,3-dihydro-1H-indol-5-yl)-N-[(2,4-dimethylphenyl)(5-methylfuran-2-yl)methyl]cyclopropane-1-carboxamide] | 100 to 1000
